Laboratory results published in the NIST ThermoML archive (doi:10.1016/j.fluid.2006.02.016).
Several values for one entry are separate records, joined by “and”; a condition that tells them apart may be missing. Identical values can stand only once. ± gives the expanded uncertainty stated by the source.

Settings: Liquid

Compound | vapor or sublimation pressure (268.15 K) [kPa] | vapor or sublimation pressure (278.15 K) [kPa] | vapor or sublimation pressure (288.15 K) [kPa] | vapor or sublimation pressure (298.15 K) [kPa] | vapor or sublimation pressure (308.15 K) [kPa] | vapor or sublimation pressure (318.15 K) [kPa] | vapor or sublimation pressure (273.15 K) [kPa] | vapor or sublimation pressure (283.15 K) [kPa] | vapor or sublimation pressure (293.15 K) [kPa] | vapor or sublimation pressure (303.15 K) [kPa] | vapor or sublimation pressure (313.15 K) | vapor or sublimation pressure (323.15 K) [kPa]
CC(F)(F)F [1,1,1-trifluoroethane] | 529.2 ± 4 | 722.4 ± 5.3 | 962 ± 6.8 | 1261.8 ± 8.7 | 1619.8 ± 11 | 2055.2 ± 14 | – | – | – | – | – | –
FCC(F)(F)F [1,1,1,2-tetrafluoroethane] | – | – | – | – | – | – | 294.2 ± 2.5 | 416.9 ± 3.3 | 571.9 ± 4.3 | 770.4 ± 5.6 | 1012.8 ± 7.1 kPa | 1313.8 ± 9.1
CCC [propane] | 407.9 ± 3.3 | 549.4 ± 4.2 | 735 ± 5.4 | 954.8 ± 6.8 | 1213 ± 8.4 | 1530.8 ± 10 | 474.6 ± 3.7 | 636.6 ± 4.7 | 836.2 ± 6 | 1078.4 ± 7.6 | 1369 ± 12 kPa and 1363.8 ± 9.4 kPa | 1709.2 ± 12
